Broadly, the IC50 is the concentration that gives 50% inhibition.

The text below walks through data of patent publication US6100254A, “Inhibitors of protein tyrosine kinases” (Board of Regents, The University of Texas System, priority 1997, dated 2000).

One assay concerns the target Yes (Homo sapiens, UniProt P07947). Description: Enzyme panel: Yes. It counts as biochemical. The note with it: apparent value against variable poly E4Y.
A further assay addresses T1, Src (Homo sapiens, UniProt P12931).
T1 construct: made in house; host or cells: baculovirus-insect cell system
Nature of the assay: Src tyrosine kinase activity, poly E4Y and 32P-ATP. The format is biochemical. The note with it: for Ki: Table 10, benzodiazepines as inhibitors of Src. The protocol: The compounds within the library were screened at a concentration of 100 μM using the following assay procedure. A 10 μL aliquot of poly(Glu:Tyr, 4:1) to final concentration of 200 μg/mL, 20 μL of benzodiazepine to be tested, 10 μL of purified Src and 10 μL of [gamma-^32 P]-ATP-MgCl2 cocktail (final concentration of 0.2 mM ATP; specific activity of 600 dpm/pmol, and 6 mM MgCl2) were mixed and incubated in 0.5 mL test tubes at ambient temperature. After 30 min, a 35 μL aliquot was spotted onto a 1×1 inch 3 MM filter paper and dropped into a 5% TCA bath at 60° C. The filter papers were washed 3 times with 5% TCA and air dried. The filter papers were then placed into a vial, 3 mL scintillation cocktail added, and analyzed by liquid scintillation counting.
(§1) The tyrosine kinase activity of Src, Lck (p56^lck), Csk (C-Src kinase), Abl (Bcr-Abl catalytic domain), and the FGFr (fibroblast growth factor receptor catalytic domain), was determined using poly E4 Y and ^32 P-ATP.

The target in another assay is T2, Csk (C-Src kinase) (Homo sapiens, UniProt P41240).
T2 construct: glutathione-S-transferase (GST) (N); made in house; host or cells: E. coli
Nature of the assay: Csk tyrosine kinase activity, poly E4Y and 32P-ATP. The format is biochemical.
From the text: (§2) The genes encoding Csk, Lck, Abl, and the FGF receptor have all been cloned. The genes encoding Csk, Abl, and the FGF receptor were cloned from humans, and the genes encoding Lck were cloned from a mouse. Recombinant Csk, Lck, Abl, and the FGFr were expressed as glutathione-S-transferase fusion proteins using the pGEX expression vector and E. coli, and purified as described (Sun et al., 1995).
(§3) Recombinant Src was expressed using the baculovirus-insect cell system and purified as published (Budde et al, 1993). Recombinant Csk, Lck, Abl, and the FGFr were expressed as glutathione-S-transferase fusion proteins using the pGEX expression vector and E. coli, and purified as described (Sun and Budde, 1995).
as §1

For assay [1], the system named is HT-29 colon adenocarcinoma cells. Description: Anchorage-independent growth, soft agar colony formation. It counts as cell-based, human. The protocol: Soft agar colony formation is used to determine anchorage independent growth, an in vitro parameter which correlates well with tumorigenicity of HT 29 cells. (AFB-13 cells are unable to form soft agar colonies, a characteristic of normal cells). These assays are performed in 6 well ([…]) multiwell tissue culture dishes. The wells are underlayed with 1% low melting agarose in complete growth media, and refrigerated for 15 min. 1×10^3 HT 29 cells are then added to the wells in complete media in 0.5% low melting agarose. […] After a 24 h incubation period, 0.5 mL of media containing compound to be tested (or media alone as a control) is added to the dish. During the assay, media with or without the test compound is replenished every 3 days. Colonies estimated to contain >100 cells are counted after 14 days. For compounds that induce growth inhibition, the assay is continued to 28 days to assure that differences in colony forming ability were not due to altered growth rate of cells. For initial screening, assays are performed in duplicate for each compound to be tested, due to the large amount of inhibitor required for the length of the study.

The target of the next assay is T3, Lck (p56^lck) (Mus musculus, UniProt P06240).
T3 construct: glutathione-S-transferase (GST) (N); made in house; host or cells: E. coli
Description: Lck tyrosine kinase activity, poly E4Y and 32P-ATP. The format is biochemical.
From the text: as §2, §3, §1

Another assay concerns the target protein kinase A (PKA) (Homo sapiens, UniProt P17612). Description: Enzyme panel: protein kinase A. It counts as biochemical.
Assay [2] has as its system HT-29 colon adenocarcinoma cells. Description: Growth of HT-29 cells, viable cell count. The format is cell-based, human. The note with it: viable cell count 5 days after plating. The protocol: (§4) For these assays 2×10^4 cells are plated in 24 well multiwell tissue culture dishes, in 1 ml of DME/F12 media supplemented with 5% fetal bovine serum. After 24 h, media is replaced with fresh media containing the concentration of inhibitor to be tested, or no inhibitor as a control. Cells are counted 1, 3, and 5 days subsequent to addition of inhibitor. For the day 5 counts, media with fresh inhibitor is used to replace spent media after day 3. […] For counting viable cells, cultures are trypsinized, stained with trypan blue, and cell number determined by counting under light microscopy with the use of a hemacytometer. Benzodiazepine derivatives were tested at their maximally soluble concentrations in 0.1% DMSO diluted with tissue culture medium, and serial dilutions were made thereof. Every concentration tested was performed in triplicate, in identical wells under identical assay conditions.

Assay [3] relates to AFB-13 normal human fibroblasts. Nature of the assay: Growth of AFB-13 cells, control for cellular toxicity. The format is cell-based. Here is the method: as §4
Another assay deals with hexokinase (HXK). Nature of the assay: Enzyme panel: hexokinase. It counts as biochemical.
Assay [4] has as its target FGFr (fibroblast growth factor receptor catalytic domain). Description: FGFr tyrosine kinase activity, poly E4Y and 32P-ATP. The format is biochemical, human.
From the text: as §2, §3, §1

Assay [5] deals with T4, Abl (Bcr-Abl catalytic domain) (Homo sapiens, UniProt P00519).
T4 construct: Abl (Bcr-Abl catalytic domain); glutathione-S-transferase (GST) (N); made in house; host or cells: E. coli
T4 sequence (P00519 242-493 limits assumed): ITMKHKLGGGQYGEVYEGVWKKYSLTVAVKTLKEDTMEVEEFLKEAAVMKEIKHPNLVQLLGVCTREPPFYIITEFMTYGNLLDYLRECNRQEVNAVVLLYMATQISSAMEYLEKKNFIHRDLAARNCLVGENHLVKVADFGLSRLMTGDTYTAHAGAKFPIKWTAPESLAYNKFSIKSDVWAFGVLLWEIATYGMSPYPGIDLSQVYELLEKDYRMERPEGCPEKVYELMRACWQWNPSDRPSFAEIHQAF
Nature of the assay: Abl tyrosine kinase activity, poly E4Y and 32P-ATP. The format is biochemical.
From the text: as §2, §3, §1

The mark [6] stands for this setting: Homo sapiens, HT-29, 336 h, colonies ≥100 cells 14 days after plating.
The mark [7] stands for this setting: Homo sapiens, Fibroblast, 120 h, viable cell count 5 days after plating.

T1 sequence (P12931 whole entry, species assumed): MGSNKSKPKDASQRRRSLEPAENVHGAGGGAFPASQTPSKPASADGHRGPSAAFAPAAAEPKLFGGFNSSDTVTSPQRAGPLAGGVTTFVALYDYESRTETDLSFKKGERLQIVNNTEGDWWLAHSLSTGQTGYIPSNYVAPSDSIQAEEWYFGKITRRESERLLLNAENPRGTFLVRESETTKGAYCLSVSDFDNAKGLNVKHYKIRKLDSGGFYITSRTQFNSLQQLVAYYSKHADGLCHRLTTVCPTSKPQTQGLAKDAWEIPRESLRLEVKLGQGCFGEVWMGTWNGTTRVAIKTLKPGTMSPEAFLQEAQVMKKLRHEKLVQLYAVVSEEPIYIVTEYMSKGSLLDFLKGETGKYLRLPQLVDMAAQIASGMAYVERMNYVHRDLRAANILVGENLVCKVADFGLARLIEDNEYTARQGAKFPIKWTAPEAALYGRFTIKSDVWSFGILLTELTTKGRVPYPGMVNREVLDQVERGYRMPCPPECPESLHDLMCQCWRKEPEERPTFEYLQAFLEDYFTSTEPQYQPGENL
T2 sequence (P41240 whole entry): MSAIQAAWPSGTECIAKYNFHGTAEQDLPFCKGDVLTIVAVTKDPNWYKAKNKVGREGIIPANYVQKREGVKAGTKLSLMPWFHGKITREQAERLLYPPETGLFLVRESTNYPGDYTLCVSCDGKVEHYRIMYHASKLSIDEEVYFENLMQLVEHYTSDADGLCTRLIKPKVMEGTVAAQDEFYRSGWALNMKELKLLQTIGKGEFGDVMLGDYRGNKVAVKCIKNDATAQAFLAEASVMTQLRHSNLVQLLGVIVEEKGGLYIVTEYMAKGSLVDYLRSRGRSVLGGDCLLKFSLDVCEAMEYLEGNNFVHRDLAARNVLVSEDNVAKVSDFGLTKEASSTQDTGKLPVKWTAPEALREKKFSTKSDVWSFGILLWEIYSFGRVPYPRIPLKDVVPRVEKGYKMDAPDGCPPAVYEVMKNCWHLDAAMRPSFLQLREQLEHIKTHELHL
T3 sequence (P06240 whole entry): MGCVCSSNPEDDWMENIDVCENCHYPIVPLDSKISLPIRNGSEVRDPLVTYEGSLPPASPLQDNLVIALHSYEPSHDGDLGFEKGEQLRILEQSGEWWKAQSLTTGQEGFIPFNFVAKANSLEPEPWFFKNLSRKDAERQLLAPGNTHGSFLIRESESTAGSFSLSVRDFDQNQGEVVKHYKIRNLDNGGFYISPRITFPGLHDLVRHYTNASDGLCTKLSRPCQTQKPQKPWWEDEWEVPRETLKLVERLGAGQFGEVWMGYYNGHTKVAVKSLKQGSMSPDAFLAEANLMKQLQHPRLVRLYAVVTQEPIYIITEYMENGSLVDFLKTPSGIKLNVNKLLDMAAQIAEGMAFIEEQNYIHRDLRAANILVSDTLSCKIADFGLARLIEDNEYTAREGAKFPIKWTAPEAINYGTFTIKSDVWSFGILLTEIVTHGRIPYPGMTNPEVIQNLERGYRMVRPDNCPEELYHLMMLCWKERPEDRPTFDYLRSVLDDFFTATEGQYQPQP
Chain of Yes (P07947 whole entry, species assumed): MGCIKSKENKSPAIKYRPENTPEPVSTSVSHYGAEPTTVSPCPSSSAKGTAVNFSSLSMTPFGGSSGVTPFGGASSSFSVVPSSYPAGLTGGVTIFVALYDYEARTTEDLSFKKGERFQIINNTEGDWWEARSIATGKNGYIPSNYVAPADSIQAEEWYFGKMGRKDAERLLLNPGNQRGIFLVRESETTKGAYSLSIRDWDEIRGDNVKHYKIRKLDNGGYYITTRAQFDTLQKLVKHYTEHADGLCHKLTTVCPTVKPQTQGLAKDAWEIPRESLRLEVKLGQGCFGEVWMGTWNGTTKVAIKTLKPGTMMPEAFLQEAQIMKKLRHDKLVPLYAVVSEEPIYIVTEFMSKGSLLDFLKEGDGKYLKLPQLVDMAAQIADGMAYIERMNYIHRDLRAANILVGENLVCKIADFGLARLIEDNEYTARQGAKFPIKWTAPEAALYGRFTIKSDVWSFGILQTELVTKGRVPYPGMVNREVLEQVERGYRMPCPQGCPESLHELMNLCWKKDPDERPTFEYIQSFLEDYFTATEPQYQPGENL

For `O=C1[C@H](Cc2ccc(O)cc2)N=C(c2ccc(O)cc2)c2cc(Cl)ccc2N1Cc1ccc(-c2ccccc2)cc1` [L-Tyr,BnzPh, 7-chloro-1,3-dihydro-1-(-4-biphenylmethyl)-3-(-4-hydroxyphenylmethyl)-5-(4-hydroxyphenyl)-(2H)1,4-benzodiazepin-2-one], the Ki at Yes came out at 50 µM; at Src, 20 µM; on Csk (C-Src kinase) (apparent value against variable poly E4Y), 63 µM; at protein kinase A (PKA) (apparent value), 104 µM. For the same compound, the IC50 against Src was 73 µM; on Csk (C-Src kinase), 136 µM; on Lck (p56^lck), 505 µM; on protein kinase A (PKA), 450 µM. The mode of inhibition entry at Src (against variable ATP or variable poly E4Y) is on record as “mixed”. For the same compound, the “inhibition of colony formation of HT-29 colon adenocarcinoma cells” value in [1] (28 μM) is on record as “complete inhibition”. The activity at 3 µM in assay [1] (setting [6]) was determined as 29%; in [2] (Homo sapiens, HT-29, 120 h), 100 ± 10%; in assay [3] (setting [7]) it was 89 ± 6%. In addition, the activity at 14 µM in assay [1] (Homo sapiens, HT-29, 336 h, 14 μM, colonies ≥100 cells 14 days after plating) was 8%; in [2] (Homo sapiens, HT-29, 120 h, 14 μM), 98 ± 9%; in [3] (Homo sapiens, Fibroblast, 120 h, 14 μM, viable cell count 5 days after plating) it was 97 ± 5%. Moreover, the activity at 28 µM in assay [1] (Homo sapiens, HT-29, 336 h, 28 μM, colonies ≥100 cells 14 days after plating) was determined as 0%; in assay [3] (Homo sapiens, Fibroblast, 120 h, 28 μM, viable cell count 5 days after plating), 90 ± 4%. Further, the “HT-29 Growth” value in assay [2] (28 μM) is “cytotoxic”. Besides, in assay [3] (same concentrations (up to 28 μM)), the “inhibition of growth of AFB-13 normal fibroblasts” value is “Less than 10%”.
Consider `O=C1[C@H](Cc2ccc(O)cc2)N=C(c2ccc(O)cc2)c2cc(Cl)ccc2N1Cc1ccccc1` [L-Tyr,Bnz], for which the IC50 at hexokinase (HXK) stood at 352 µM; in assay [4], 418 µM; at Src, 190 µM; on Csk (C-Src kinase) it was 404 µM; against Lck (p56^lck), 570 µM; against protein kinase A (PKA), 124 µM. This compound also came in with an IC50 in assay [5] of 931 µM. For the same compound, at Src, the Ki turned out to be 74 µM. In addition, in [1] (30 μM), the “inhibition of colony formation of HT-29 colon adenocarcinoma cells” value is given as “complete inhibition”. The activity at 3 µM in assay [1] (setting [6]) is 52%; in [2] (Homo sapiens, HT-29, 120 h), 100 ± 3%; in [3] (setting [7]), 100 ± 4%. The activity at 15 µM in [1] (Homo sapiens, HT-29, 336 h, 15 μM, colonies ≥100 cells 14 days after plating) worked out at 11%; in assay [2] (Homo sapiens, HT-29, 120 h, 15 μM), 84 ± 6%; in assay [3] (Homo sapiens, Fibroblast, 120 h, 15 μM, viable cell count 5 days after plating), 92 ± 6%. Further, the activity at 30 µM in assay [1] (Homo sapiens, HT-29, 336 h, 30 μM, colonies ≥100 cells 14 days after plating) turned out to be 0%; in assay [2] (Homo sapiens, HT-29, 120 h, 30 μM) it was 73 ± 9%; in assay [3] (Homo sapiens, Fibroblast, 120 h, 30 μM, viable cell count 5 days after plating), 92 ± 8%. Further, in assay [3] (same concentrations (up to 30 μM)), the “inhibition of growth of AFB-13 normal fibroblasts” value is “no inhibition”.
